Structures can show the parent of a compound that is named as a salt.

The experiment deals with T1, human muscarinic acetylcholine M3 receptor (Homo sapiens, UniProt P20309).
T1 construct: expressed in transfected cells; host or cells: CHO cells, stably transfected; membranes
As to the kind of experiment: biochemical. Format: binding.

T1 sequence (P20309 whole entry): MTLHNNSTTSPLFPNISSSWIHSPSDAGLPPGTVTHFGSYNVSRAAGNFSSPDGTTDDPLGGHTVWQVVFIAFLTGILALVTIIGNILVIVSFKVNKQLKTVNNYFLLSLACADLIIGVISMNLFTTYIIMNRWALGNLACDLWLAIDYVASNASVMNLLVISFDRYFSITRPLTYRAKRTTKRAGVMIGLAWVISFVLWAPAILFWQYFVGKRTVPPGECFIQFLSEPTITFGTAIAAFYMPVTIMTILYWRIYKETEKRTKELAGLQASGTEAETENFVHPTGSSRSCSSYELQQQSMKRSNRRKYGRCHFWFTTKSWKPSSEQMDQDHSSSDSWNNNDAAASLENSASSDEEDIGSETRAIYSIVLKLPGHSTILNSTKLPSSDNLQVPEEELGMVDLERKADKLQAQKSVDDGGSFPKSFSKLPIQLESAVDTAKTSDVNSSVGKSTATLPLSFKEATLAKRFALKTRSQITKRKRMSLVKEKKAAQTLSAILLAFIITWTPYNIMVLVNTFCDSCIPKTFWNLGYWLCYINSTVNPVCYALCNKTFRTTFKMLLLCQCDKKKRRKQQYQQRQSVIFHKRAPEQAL

With `O=C(C[N+]12CCC(CC1)[C@@H](OC(=O)C(O)(c1cccs1)c1cccs1)C2)Nc1ccccc1` [Example 76, (R)-3-(2-Hydroxy-2,2-di-thiophen-2-yl-acetoxy)-1-phenylcarbamoylmethyl-1-azonia-bicyclo[2.2.2]octane trifluoroacetate], the Ki came to 1.1 nM.

In the case of `O=C(C[N+]12CCC(CC1)[C@@H](OC(=O)C(O)(c1ccccc1)c1ccccc1)C2)Nc1ccccc1` [Example 52, (R)-3-(2-Hydroxy-2,2-diphenyl-acetoxy)-1-phenylcarbamoylmethyl-1-azonia-bicyclo[2.2.2]octane], the affinity corresponds to a Ki of 1.9 nM.

Consider `O=C(C[N+]12CCC(CC1)[C@@H](OC(=O)C(O)(c1cccs1)c1cccs1)C2)Nc1cnccn1` [Example 159, (R)-3-(2-Hydroxy-2,2-di-thiophen-2-yl-acetoxy)-1-(pyrazin-2-ylcarbamoylmethyl)-1-azonia-bicyclo[2.2.2]octane bromide], for which affinity was put at a Ki of 0.7 nM. Compared with the last compound, the Ki is about 2.7-fold lower.

Compound `O=C(C[N+]12CCC(CC1)[C@@H](OC(=O)C(O)(c1ccccc1)c1ccccc1)C2)Nc1ccon1` [Example 242, (R)-3-(2-Hydroxy-2,2-diphenyl-acetoxy)-1-(isoxazol-3ylcarbamoylmethyl)-1-azonia-bicyclo[2.2.2]octane bromide] had a Ki of 0.3 nM.

`O=C(NCC[N+]12CCC(CC1)[C@@H](OC(=O)C(O)(c1ccccc1)c1ccccc1)C2)C1(O)CC1` [Example 221, (R)-1-[2-[(1-Hydroxy-cyclo-propanecarbonyl)-amino]-ethyl]-3-(2-hydroxy-2,2-diphenyl-acetoxy)-1-azonia-bicyclo[2.2.2]-octane hexafluorophosphate] had a Ki of 1.3 nM.

`O=C(NCC[N+]12CCC(CC1)[C@@H](OC(=O)C(O)(c1ccccc1)c1ccccc1)C2)c1cnccn1` [Example 138, (R)-3-(2-Hydroxy-2,2-diphenyl-acetoxy)-1-(2-[{pyrazine-2-carbonyl)-amino]-ethyl}-1-azonia-bicyclo[2.2.2]octane trifluoroacetate] returned a Ki of 2.2 nM.

`O=C(C[N+]12CCC(CC1)[C@@H](OC(=O)C(O)(c1cccs1)c1cccs1)C2)Nc1ccncn1` [Example 244, (R)-3-(2-Hydroxy-2,2-di-thiophen-2-yl-acetoxy)-1-(pyrimidin-4-ylcarbamoylmethyl)-1-azonia-bicyclo[2.2.2]octane bromide] displayed a Ki of 0.3 nM.

With `O=C(C[N+]12CCC(CC1)[C@@H](OC(=O)C(O)(c1ccccc1)c1ccccc1)C2)NCCc1cccs1` [Example 96, (R)-3-(2-Hydroxy-2,2-diphenyl-acetoxy)-1-[(2-thiophen-2-yl-ethylcarbamoyl)-methyl]-1-azonia-bicyclo[2.2.2]octane trifluoroacetate], the affinity, expressed as Ki, was 4.6 nM. Compared with the last compound, the Ki is about 15-fold higher.

As to `O=C(Cc1ccccc1)NCCC[N+]12CCC(CC1)[C@@H](OC(=O)C(O)(c1ccccc1)c1ccccc1)C2` [Example 34, (R)-3-(2-Hydroxy-2,2-diphenyl-acetoxy)-1-(3-phenylacetylamino-propyl)-1-azonia-bicyclo[2.2.2]octane trifluoroacetate], the Ki worked out at 2.3 nM.

What is called Ki is a measure of affinity in units of concentration, obtained from inhibition or displacement.

Values taken from patent publication US8168654B2 (priority 2003, dated 2012).
